Counter-ions that a name gives are not always drawn. Like-named read-outs stand apart in the source and are kept apart here.
Tests used:
rat primary hepatocytes [1] = test system: rat primary hepatocytes
rat primary hepatocytes [2] = assay: MMP assay in rat primary hepatocytes; conditions: for IC50: read-out: MMP assays IC50 (µM) Rat Hepatocytes
HepG2 cells [3] = conditions: for IC50: read-out: MMP assays IC50 (µM) HepG2
HepG2 cells [4] = conditions: cited from earlier work
[5] = read-out: MMP assays IC50 (µM), qHTS-HepG2
[6] = read-out: MMP assays IC50 (µM) qHTS-HepG2
[7] = rat hepatocytes, mean ± SD of three experiments
[8] = HepG2 cells, single number from one experiment

Cc1cnc(NC(=O)C2=C(O)c3ccccc3S(=O)(=O)N2C)s1 [Meloxicam]
MMP assays efficacy (%) Rat Hepatocytes (rat primary hepatocytes [1]): inactive
MMP assays IC50 (µM) Rat Hepatocytes (rat primary hepatocytes [2]): inactive
MMP assays IC50 (µM) HepG2 (HepG2 cells [3]): inactive
MMP assays efficacy (%) HepG2 (HepG2 cells [3]): inactive
IC50 (HepG2 cells [4]; [5]): 14.5 µM

CCN1\C(=C/C=C/C=C/c2sc3ccccc3[n+]2CC)Sc2ccccc21.[Cl-] [Dithiazanine chloride]
MMP assays efficacy (%) Rat Hepatocytes (rat primary hepatocytes [1]): -77±9%
IC50 (rat primary hepatocytes [2]): 2.45 µM
MMP assays efficacy (%) HepG2 (HepG2 cells [3]): -79%
IC50 (HepG2 cells [3]): 0.15 µM
MMP assays efficacy (%) qHTS-HepG2 (HepG2 cells [4]): -56±6%
IC50 (HepG2 cells [4]; [6]): 0.27 µM

[Ba+2].[Cl-].[Cl-] [Barium chloride]
MMP assays efficacy (%) Rat Hepatocytes (rat primary hepatocytes [1]): inactive
MMP assays IC50 (µM) Rat Hepatocytes (rat primary hepatocytes [2]): inactive
MMP assays efficacy (%) HepG2 (HepG2 cells [3]): -46%
IC50 (HepG2 cells [3]): 39.8 µM
MMP assays efficacy (%) qHTS-HepG2 (HepG2 cells [4]): -68±11%
IC50 (HepG2 cells [4]; [6]): 16.6 ± 8.5 µM

Methyl violet
MMP assays efficacy (%) Rat Hepatocytes (rat primary hepatocytes [1]): -81±20%
IC50 (rat primary hepatocytes [2]): 1.73 µM
MMP assays efficacy (%) HepG2 (HepG2 cells [3]): -100%
IC50 (HepG2 cells [3]): 0.44 µM
MMP assays efficacy (%) qHTS-HepG2 (HepG2 cells [4]): -121±3%
IC50 (HepG2 cells [4]; [5]): 0.07 ± 0.03 µM

[OH-].c1cc[c]([Sn+]([c]2ccccc2)[c]2ccccc2)cc1 [Triphenyltin hydroxide]
MMP assays efficacy (%) Rat Hepatocytes (rat primary hepatocytes [1]): -118±53%
IC50 (rat primary hepatocytes [2]): 14.8 ± 5.12 µM
MMP assays efficacy (%) HepG2 (HepG2 cells [3]): -94%
IC50 (HepG2 cells [3]): 1.12 µM
MMP assays efficacy (%) qHTS-HepG2 (HepG2 cells [4]): -95±9%
IC50 (HepG2 cells [4]; [5]): 0.12 ± 0.03 µM

Cc1ccc(-n2nc(C(C)(C)C)cc2NC(=O)Nc2ccc(OCCN3CCOCC3)c3ccccc23)cc1 [Doramapimod;BIBR-796?]
MMP assays efficacy (%) Rat Hepatocytes (rat primary hepatocytes [1]): -77±5%
IC50 (rat primary hepatocytes [2]): 24.1 ± 9.54 µM
MMP assays efficacy (%) HepG2 (HepG2 cells [3]): -69%
IC50 (HepG2 cells [3]): 21.8 µM
IC50 (HepG2 cells [4]; [6]): 21.1 ± 5.52 µM

O=C1c2ccccc2C(=O)C1c1ccccc1 [Phenindione]
MMP assays efficacy (%) Rat Hepatocytes (rat primary hepatocytes [1]): inactive
MMP assays IC50 (µM) Rat Hepatocytes (rat primary hepatocytes [2]): inactive
MMP assays IC50 (µM) HepG2 (HepG2 cells [3]): inactive
MMP assays efficacy (%) HepG2 (HepG2 cells [3]): inactive
MMP assays IC50 (µM) qHTS-HepG2 (HepG2 cells [4]): inactive
MMP assays efficacy (%) qHTS-HepG2 (HepG2 cells [4]): inactive

O=[N+]([O-])c1cccc2ccccc12 [Compound 1-Nitronaphthalene]
MMP assays efficacy (%) Rat Hepatocytes (rat primary hepatocytes [1]): -54±17%
IC50 (rat primary hepatocytes [2]; Rattus norvegicus, Hepatocyte): 45.9 ± 14.7 µM
MMP assays IC50 (µM) HepG2 (HepG2 cells [3]): inactive
MMP assays efficacy (%) HepG2 (HepG2 cells [3]): inactive
MMP assays efficacy (%) qHTS-HepG2 (HepG2 cells [4]): -40±7%
IC50 (HepG2 cells [4]; [6]): 59.7 ± 7.06 µM

Oc1ccc(C(c2ccc(O)cc2)C(Cl)(Cl)Cl)cc1
MMP assays efficacy (%) Rat Hepatocytes (rat primary hepatocytes [1]): -89±3%
IC50 (rat primary hepatocytes [2]): 33.2 ± 24.2 µM
MMP assays efficacy (%) HepG2 (HepG2 cells [3]): -103%
IC50 (HepG2 cells [3]): 10 µM
MMP assays efficacy (%) qHTS-HepG2 (HepG2 cells [4]): -101±13%
IC50 (HepG2 cells [4]; [6]): 8.78 ± 1.43 µM

c1ccc(C2(N3CCCC3)CCCCC2)cc1 [Rolicyclidine]
MMP assays efficacy (%) Rat Hepatocytes (rat primary hepatocytes [1]): inactive
MMP assays IC50 (µM) Rat Hepatocytes (rat primary hepatocytes [2]): inactive
MMP assays IC50 (µM) HepG2 (HepG2 cells [3]): inactive
MMP assays efficacy (%) HepG2 (HepG2 cells [3]): inactive
MMP assays efficacy (%) qHTS-HepG2 (HepG2 cells [4]): -97±15%
IC50 (HepG2 cells [4]; [5]): 22.3 ± 2.32 µM

O=[N+]([O-])c1ccc2ncccc2c1 [Compound 6-Nitroquinoline]
MMP assays efficacy (%) Rat Hepatocytes (rat primary hepatocytes [1]): -29±7%
IC50 (rat primary hepatocytes [2]; Rattus norvegicus, Hepatocyte): 44.8 ± 16.3 µM
MMP assays IC50 (µM) HepG2 (HepG2 cells [3]): inactive
MMP assays efficacy (%) HepG2 (HepG2 cells [3]): inactive
MMP assays efficacy (%) qHTS-HepG2 (HepG2 cells [4]): -51±5%
IC50 (HepG2 cells [4]; [6]): 30.7 ± 11.5 µM

O=C(Nc1ccc(Br)cc1)c1cc(Br)cc(Br)c1O [Tribromosalan]
MMP assays efficacy (%) Rat Hepatocytes (rat primary hepatocytes [1]): -96±35%
IC50 (rat primary hepatocytes [2]; [7]): 0.55 ± 0.36 µM
MMP assays efficacy (%) HepG2 (HepG2 cells [3]; [8]): -111%
IC50 (HepG2 cells [3]; [8]): 0.97 µM
IC50 (HepG2 cells [4]; [5]): 1.12 µM

Nc1nc(N)c(N)c(N)n1.O=S(=O)(O)O [tetra-Aminopyrimidine sulfate]
MMP assays efficacy (%) Rat Hepatocytes (rat primary hepatocytes [1]): -55±32%
IC50 (rat primary hepatocytes [2]): 42.1 ± 30.6 µM
MMP assays efficacy (%) HepG2 (HepG2 cells [3]): -87%
IC50 (HepG2 cells [3]): 25.1 µM
MMP assays efficacy (%) qHTS-HepG2 (HepG2 cells [4]): -117±30%
IC50 (HepG2 cells [4]; [5]): 18.7 ± 11.4 µM

Nc1c(Br)cc(Br)c2c1C(=O)c1ccccc1C2=O [1-Amino-2,4-dibromoanthraquinone]
MMP assays efficacy (%) Rat Hepatocytes (rat primary hepatocytes [1]): -48±19%
IC50 (rat primary hepatocytes [2]; Rattus norvegicus, Hepatocyte): 27.4 ± 4.44 µM
MMP assays IC50 (µM) HepG2 (HepG2 cells [3]): inactive
MMP assays efficacy (%) HepG2 (HepG2 cells [3]): inactive
MMP assays efficacy (%) qHTS-HepG2 (HepG2 cells [4]): -54±9%
IC50 (HepG2 cells [4]; [6]): 2.78 ± 3.75 µM

CN1C[C@H](C(=O)N[C@]2(C)O[C@@]3(O)[C@@H]4CCCN4C(=O)[C@H](Cc4ccccc4)N3C2=O)C=C2c3cccc4[nH]cc(c34)C[C@H]21 [Ergotamine D-tartrate]
MMP assays efficacy (%) Rat Hepatocytes (rat primary hepatocytes [1]): inactive
MMP assays IC50 (µM) Rat Hepatocytes (rat primary hepatocytes [2]): inactive
MMP assays IC50 (µM) HepG2 (HepG2 cells [3]): inactive
MMP assays efficacy (%) HepG2 (HepG2 cells [3]): inactive
MMP assays efficacy (%) qHTS-HepG2 (HepG2 cells [4]): -54±10%
IC50 (HepG2 cells [4]; [6]): 7.55 ± 1.06 µM

CC(=O)O[C@H]1C[C@H](O[C@H]2[C@@H](O)C[C@H](O[C@H]3[C@@H](O)C[C@H](O[C@H]4CC[C@@]5(C)[C@H](CC[C@@H]6[C@@H]5CC[C@]5(C)[C@@H](C7=CC(=O)OC7)[C@@H](O)C[C@]65O)C4)O[C@@H]3C)O[C@@H]2C)O[C@H](C)[C@H]1O[C@@H]1O[C@H](CO)[C@@H](O)[C@H](O)[C@H]1O [Lanatoside B]
MMP assays efficacy (%) Rat Hepatocytes (rat primary hepatocytes [1]): inactive
MMP assays IC50 (µM) Rat Hepatocytes (rat primary hepatocytes [2]): inactive
MMP assays efficacy (%) HepG2 (HepG2 cells [3]): -96%
IC50 (HepG2 cells [3]): 0.69 µM
MMP assays efficacy (%) qHTS-HepG2 (HepG2 cells [4]): -68±14%
IC50 (HepG2 cells [4]; [5]): 1.1 ± 0.2 µM

Nc1ccc(-c2ccc(N)c(N)c2)cc1N [3,3',4,4'-Tetraaminobiphenyl tetrahydrochloride]
MMP assays efficacy (%) Rat Hepatocytes (rat primary hepatocytes [1]): -39±5%
IC50 (rat primary hepatocytes [2]): 9.46 ± 4.43 µM
MMP assays efficacy (%) HepG2 (HepG2 cells [3]): -82%
IC50 (HepG2 cells [3]): 2 µM
MMP assays efficacy (%) qHTS-HepG2 (HepG2 cells [4]): -92±8%
IC50 (HepG2 cells [4]; [6]): 0.34 ± 0.26 µM

CN(N=O)c1ccc([N+](=O)[O-])cc1 [N-Nitroso-N-methyl-4-nitroaniline]
MMP assays efficacy (%) Rat Hepatocytes (rat primary hepatocytes [1]): -69+6%
IC50 (rat primary hepatocytes [2]): 20 ± 16.6 µM
MMP assays IC50 (µM) HepG2 (HepG2 cells [3]): inactive
MMP assays efficacy (%) HepG2 (HepG2 cells [3]): inactive
MMP assays IC50 (µM) qHTS-HepG2 (HepG2 cells [4]): inactive
MMP assays efficacy (%) qHTS-HepG2 (HepG2 cells [4]): inactive

Cl.Nc1c2ccccc2nc2ccccc12.O
MMP assays efficacy (%) Rat Hepatocytes (rat primary hepatocytes [1]): -56±22%
IC50 (rat primary hepatocytes [2]): 8.51 ± 5.35 µM
MMP assays efficacy (%) HepG2 (HepG2 cells [3]): -115%
IC50 (HepG2 cells [3]): 21.8 µM
MMP assays efficacy (%) qHTS-HepG2 (HepG2 cells [4]): -82±4%
IC50 (HepG2 cells [4]; [6]): 13.8 ± 1.75 µM

Mepartricin
MMP assays efficacy (%) Rat Hepatocytes (rat primary hepatocytes [1]): -65±17%
IC50 (rat primary hepatocytes [2]): 27.7 ± 4.48 µM
MMP assays efficacy (%) HepG2 (HepG2 cells [3]): -99%
IC50 (HepG2 cells [3]): 6.9 µM
MMP assays efficacy (%) qHTS-HepG2 (HepG2 cells [4]): -82±8%
IC50 (HepG2 cells [4]; [5]): 23.2 ± 6.59 µM

O=C1CCCc2c1cc1ccc3cccc4ccc2c1c34 [9,10-Dihydrobenzo[a]pyren-7(8H)-one]
MMP assays efficacy (%) Rat Hepatocytes (rat primary hepatocytes [1]): -79±35%
IC50 (rat primary hepatocytes [2]): 16.8 ± 7.33 µM
MMP assays IC50 (µM) HepG2 (HepG2 cells [3]): inactive
MMP assays efficacy (%) HepG2 (HepG2 cells [3]): inactive
MMP assays efficacy (%) qHTS-HepG2 (HepG2 cells [4]): -90±6%
IC50 (HepG2 cells [4]; [6]): 9.81 ± 2.08 µM

O=C(c1ccc(OCCN2CCCCC2)cc1)c1c(-c2ccc(O)cc2)sc2cc(O)ccc12 [Raloxifene]
MMP assays efficacy (%) Rat Hepatocytes (rat primary hepatocytes [1]): -92±39%
IC50 (rat primary hepatocytes [2]; Rattus norvegicus, Hepatocyte): 22.4 ± 24.1 µM
MMP assays efficacy (%) HepG2 (HepG2 cells [3]): -96%
IC50 (HepG2 cells [3]): 17.8 µM
MMP assays efficacy (%) qHTS-HepG2 (HepG2 cells [4]): -121±25%
IC50 (HepG2 cells [4]; [5]): 5.05 ± 3.99 µM

CC(c1ccc(O)cc1)c1ccc(O)cc1 [Bisphenol E]
MMP assays efficacy (%) Rat Hepatocytes (rat primary hepatocytes [1]): -56±19%
IC50 (rat primary hepatocytes [2]): 36.5 ± 19.2 µM
MMP assays efficacy (%) HepG2 (HepG2 cells [3]): -147%
IC50 (HepG2 cells [3]): 25.1 µM
MMP assays efficacy (%) qHTS-HepG2 (HepG2 cells [4]): -127±8%
IC50 (HepG2 cells [4]; [6]): 27.6 ± 1.8 µM

Cl.Nc1ccc(/N=N/c2ccccc2)c(N)c1 [C.I. Basic orange 2]
MMP assays efficacy (%) Rat Hepatocytes (rat primary hepatocytes [1]): -34±7%
IC50 (rat primary hepatocytes [2]; [7]): 24.9 ± 21.1 µM
MMP assays efficacy (%) HepG2 (HepG2 cells [3]; [8]): -113%
IC50 (HepG2 cells [3]; [8]): 19.9 µM
MMP assays efficacy (%) qHTS-HepG2 (HepG2 cells [4]): -82±19%
IC50 (HepG2 cells [4]; [6]): 7.53 ± 5.61 µM

NC(=O)c1cc([N+](=O)[O-])cc([N+](=O)[O-])c1 [Nitromide]
MMP assays efficacy (%) Rat Hepatocytes (rat primary hepatocytes [1]): inactive
MMP assays IC50 (µM) Rat Hepatocytes (rat primary hepatocytes [2]): inactive
MMP assays IC50 (µM) HepG2 (HepG2 cells [3]): inactive
MMP assays efficacy (%) HepG2 (HepG2 cells [3]): inactive
MMP assays IC50 (µM) qHTS-HepG2 (HepG2 cells [4]): inactive
MMP assays efficacy (%) qHTS-HepG2 (HepG2 cells [4]): inactive
